Experimental data taken from the supplement of paper PMC10307832.

Assays:
Assay in all cases: relative viability (nuclei count vs DMSO), 5 days (fraction); higher = more cells survive
TPCA-1 + Linsitinib = compound: C1=CC(=CC=C1C2=CC(=C(S2)NC(=O)N)C(=O)N)F [TPCA-1] + C[C@]1(O)C[C@@H](c2nc(-c3ccc4ccc(-c5ccccc5)nc4c3)c3c(N)nccn32)C1 [Linsitinib] (partner 1 µM)
Method in brief: (§1)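 One day after seeding in 1536-well plates, lung cancer cell lines were dosed by pin tool. Dosing was either single-drug or a fixed anchor-drug dose plus five library-drug doses (not always all listed) in √10 steps. After 5 days, nuclei were stained in one fix-and-stain step and counted on 4× images, and relative viability is the nuclei count of treated wells over that of vehicle wells, given as the median of duplicate plates.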

[1] = compound: C1/C(=C\C2=CC=CS2)/C(=O)/C(=C/C3=CC=CS3)/C1 + Cc1cc(Nc2cc(N3CCN(C)CC3)nc(Sc3ccc(NC(=O)C4CC4)cc3)n2)n[nH]1 [Tozasertib] (partner 0.1 µM)
Method in brief: as §1

[2] = compound: C1/C(=C\C2=CC=CS2)/C(=O)/C(=C/C3=CC=CS3)/C1 + O=C(c1cc(Cc2n[nH]c(=O)c3ccccc23)ccc1F)N1CCN(C(=O)C2CC2)CC1 [Olaparib] (partner 8 µM)
Method in brief: as §1

TPCA-1 + Phenformin = compound: C1=CC(=CC=C1C2=CC(=C(S2)NC(=O)N)C(=O)N)F [TPCA-1] + N=C(N)NC(=N)NCCc1ccccc1 [Phenformin] (partner 250 µM)
Method in brief: as §1

Cell Line	relative viability (TPCA-1 + Linsitinib; first compound 0.04 µM)	relative viability (TPCA-1 + Linsitinib; first compound 0.1265 µM)	relative viability (TPCA-1 + Linsitinib; first compound 0.4 µM)	relative viability (TPCA-1 + Linsitinib; first compound 1.265 µM)	relative viability (TPCA-1 + Linsitinib; first compound 4 µM)	relative viability ([1]; first compound 0.2 µM)	relative viability ([1]; first compound 0.6325 µM)	relative viability ([1]; first compound 2 µM)	relative viability ([1]; first compound 20 µM)	relative viability ([2]; first compound 0.2 µM)	relative viability ([2]; first compound 0.6325 µM)	relative viability ([2]; first compound 2 µM)	relative viability ([2]; first compound 6.325 µM)	relative viability ([2]; first compound 20 µM)	relative viability (TPCA-1 + Phenformin; first compound 0.04 µM)	relative viability (TPCA-1 + Phenformin; first compound 0.1265 µM)	relative viability (TPCA-1 + Phenformin; first compound 0.4 µM)	relative viability (TPCA-1 + Phenformin; first compound 1.265 µM)	relative viability (TPCA-1 + Phenformin; first compound 4 µM)	relative viability ([1]; first compound 6.325 µM)
NCI-H358	0.902	0.557	0.691	0.487	0.339	0.101	0.096	0.112	0.11	0.862	0.715	0.657	0.443	0.492	0.359	0.287	0.379	0.333	0.206	–
NCI-H1734	0.992	0.729	0.878	0.829	0.89	0.282	0.293	0.263	0.287	0.621	0.597	0.596	0.528	0.629	0.42	0.363	0.42	0.391	0.287	0.167
A-427	1.13	1.06	1.17	1.09	1.12	0.185	0.22	0.248	0.216	0.802	0.797	0.762	0.467	0.786	0.423	0.283	0.371	0.19	0.145	0.176
RERF-LC-KJ	1.02	0.82	0.857	0.896	0.905	0.475	0.566	0.533	0.455	0.948	0.956	0.869	0.724	0.637	0.425	0.393	0.424	0.408	0.37	0.46
NCI-H727	0.203	0.318	0.342	0.223	0.244	0.725	0.619	0.627	0.536	0.803	0.627	0.755	–	0.697	0.673	0.417	0.488	0.389	0.479	0.478
LCLC-97TM1	0.206	0.188	0.166	0.15	0.159	0.239	0.233	0.227	0.195	0.459	0.389	0.344	0.275	0.347	0.44	0.394	0.414	0.294	0.386	0.213
BEN	0.973	0.728	1	0.877	0.692	0.474	0.506	0.506	0.6	1.15	1.03	1.19	1.04	0.944	0.304	0.262	0.255	0.254	0.249	0.52
NCI-H2023	0.706	0.721	0.765	0.559	0.409	0.428	0.507	0.397	0.259	0.457	0.501	0.459	0.459	0.417	0.488	0.423	0.476	0.359	0.269	0.346
LC-2-ad	0.92	0.71	0.833	0.807	0.331	0.452	0.461	0.448	0.429	0.73	0.728	0.684	0.577	0.713	0.679	0.523	0.607	0.575	0.319	0.429
ABC-1	0.936	0.714	0.662	0.579	0.524	0.182	0.17	0.195	0.218	1.02	0.984	1.11	0.842	0.779	0.292	0.22	0.197	0.211	0.203	0.195
NCI-H647	1.11	1.07	1.1	1.05	0.694	0.382	0.379	0.296	0.238	0.776	0.482	0.433	0.501	0.573	0.557	0.484	0.614	0.38	0.151	0.271
NCI-H1755	0.978	0.941	1	1	0.852	0.64	0.583	0.582	0.549	0.88	0.907	0.916	0.749	0.877	0.665	0.553	0.6	0.503	0.427	0.539
EPLC-272H	1.3	1.09	1.33	1.03	1.01	0.293	0.325	0.322	0.287	0.858	0.907	0.627	0.506	0.579	0.343	0.391	0.292	0.289	0.272	0.283
NCI-H1437	1.17	0.936	1.02	0.926	0.754	0.408	0.413	0.452	0.407	0.667	0.618	0.634	0.563	0.617	0.336	0.297	0.277	0.297	0.299	0.273
EKVX	1.1	0.868	1.08	0.69	0.846	0.405	0.452	0.329	0.394	0.884	0.734	0.951	–	0.821	0.215	0.22	0.252	0.198	0.125	0.424
NCI-H1651	1.13	0.891	0.985	0.947	0.974	0.731	0.671	0.837	0.718	0.174	0.207	0.197	0.19	0.229	0.361	0.295	0.368	0.327	0.262	0.596
